According to PubChem BioAssay AID330 (DTP/NCI, 2004):
Several values for one entry are separate records, joined by “and”; a condition that tells them apart may be missing. Equal entries are not always repeated. Inconclusive results and toxic doses are left out. How the source made its calls: active means survival T/C of 150% or more; inactive means T/C below 125% in these data.

Tested on: P388 leukemia ip, CD2F1 mice, survival T/C
Assay: NCI In Vivo Anticancer Drug Screen. Data for tumor model P388 Leukemia (intraperitoneal) in CD2F1 (CDF1) mice
Conditions: endpoint: median survival time, higher = longer survival
Outline: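 Mice carrying the transplanted tumor received test compound or vehicle. Survival was recorded in each group, and the value is the treated-group measurement divided by that of the vehicle-treated control group.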

[1] = dose: 25.0 mg/kg/injection, schedule: Q01DX009 (ip), vehicle: saline
[2] = dose: 60.0 mg/kg/injection, schedule: Q01DX005 (ip), vehicle: saline with Tween-80
[3] = dose: 120.0 mg/kg/injection, schedule: Q01DX005 (ip), vehicle: saline with Tween-80
[4] = dose: 240.0 mg/kg/injection, schedule: Q01DX005 (ip), vehicle: saline with Tween-80
[5] = dose: 50.0 mg/kg/injection, schedule: Q01DX009 (ip), vehicle: saline
[6] = dose: 50.0 mg/kg/injection, schedule: Q01DX005 (ip), vehicle: saline with Tween-80
[7] = dose: 100.0 mg/kg/injection, schedule: Q01DX009 (ip), vehicle: saline with Tween-80
[8] = dose: 200.0 mg/kg/injection, schedule: Q01DX009 (ip), vehicle: saline with Tween-80
[9] = dose: 400.0 mg/kg/injection, schedule: Q01DX009 (ip), vehicle: saline with Tween-80
[10] = dose: 50.0 mg/kg/injection, schedule: Q01DX005 (ip), vehicle: Klucel (hydroxypropylcellulose) (HPC)
[11] = dose: 100.0 mg/kg/injection, schedule: Q01DX005 (ip), vehicle: Klucel (hydroxypropylcellulose) (HPC)
[12] = dose: 200.0 mg/kg/injection, schedule: Q01DX005 (ip), vehicle: Klucel (hydroxypropylcellulose) (HPC)
[13] = dose: 60.0 mg/kg/injection, schedule: Q01DX005 (ip), vehicle: Klucel (hydroxypropylcellulose) (HPC)
[14] = dose: 120.0 mg/kg/injection, schedule: Q01DX005 (ip), vehicle: Klucel (hydroxypropylcellulose) (HPC)

Measured: T/C

O=c1cn[nH]c(=O)[nH]1
inactive: dose: 62.5 mg/kg/injection, schedule: Q01DX010 (ip), vehicle: saline 100 % of control | dose: 125.0 mg/kg/injection, schedule: Q01DX010 (ip), vehicle: saline 91 % of control | dose: 250.0 mg/kg/injection, schedule: Q01DX010 (ip), vehicle: saline 91 % of control

Cc1c2ccnc(C#N)c2c(C)c2c1[nH]c1ccccc12
inactive: dose: 0.78 mg/kg/injection, schedule: Q04DX003 (ip), vehicle: distilled water + Tween-80 91 % of control | dose: 1.56 mg/kg/injection, schedule: Q04DX003 (ip), vehicle: distilled water + Tween-80 97 % of control | dose: 3.13 mg/kg/injection, schedule: Q04DX003 (ip), vehicle: distilled water + Tween-80 97 % of control | dose: 6.25 mg/kg/injection, schedule: Q04DX003 (ip), vehicle: distilled water + Tween-80 87 % of control and 88 % of control

CC(=O)NCC(O)CNC(C)=O
inactive: dose: 6.25 mg/kg/injection, schedule: Q01DX009 (ip), vehicle: saline 103 % of control | dose: 12.5 mg/kg/injection, schedule: Q01DX009 (ip), vehicle: saline 97 % of control | [1] 95 % of control

COc1ccc(C(C)(C)c2cc3c(cc2OCCO)OCO3)cc1
inactive: [2] 96 % of control | [3] 101 % of control | [4] 105 % of control

CCC(O)C(C[N+](=O)[O-])C(=O)OC (stereo not drawn)
inactive: dose: 50.0 mg/kg/injection, schedule: Q01DX005 (ip), vehicle: saline 109 % of control | dose: 100.0 mg/kg/injection, schedule: Q01DX005 (ip), vehicle: saline 107 % of control | dose: 200.0 mg/kg/injection, schedule: Q01DX005 (ip), vehicle: saline 102 % of control

CCOC(=O)/C(=C(\C)N)C1CC(=O)NC1=O (stereo not drawn)
inactive: [1] 104 % of control | [5] 104 % of control | dose: 100.0 mg/kg/injection, schedule: Q01DX009 (ip), vehicle: saline 101 % of control | dose: 200.0 mg/kg/injection, schedule: Q01DX009 (ip), vehicle: saline 107 % of control

COc1ccc2[nH]c3c(c2c1)C(c1ccccc1)c1ccccc1-3 (stereo not drawn)
inactive: dose: 12.5 mg/kg/injection, schedule: Q01DX005 (ip), vehicle: saline with Tween-80 100 % of control | dose: 25.0 mg/kg/injection, schedule: Q01DX005 (ip), vehicle: saline with Tween-80 88 % of control | [6] 90 % of control

CCCCCCCC(=O)Nc1nnc(SCCCCCCSc2nnc(NC(=O)CCCCCCC)s2)s1
inactive: dose: 50.0 mg/kg/injection, schedule: Q01DX005 (ip), vehicle: Klucel + Tween-80 90 % of control | dose: 100.0 mg/kg/injection, schedule: Q01DX005 (ip), vehicle: Klucel + Tween-80 90 % of control | dose: 200.0 mg/kg/injection, schedule: Q01DX005 (ip), vehicle: Klucel + Tween-80 95 % of control

c1cnc2n[se]nc2c1
inactive: dose: 6.25 mg/kg/injection, schedule: Q04DX002 (ip), vehicle: saline 113 % of control | dose: 12.5 mg/kg/injection, schedule: Q04DX002 (ip), vehicle: saline 97 % of control

O=S(=O)(Nc1ccc(Br)cc1)c1ccccc1
inactive: [7] 100 % of control | dose: 100.0 mg/kg/injection, schedule: Q04DX003 (ip), vehicle: saline with Tween-80 100 % of control | [8] 90 % of control | dose: 200.0 mg/kg/injection, schedule: Q04DX003 (ip), vehicle: saline with Tween-80 95 % of control | [9] 100 % of control | dose: 400.0 mg/kg/injection, schedule: Q04DX003 (ip), vehicle: saline with Tween-80 91 % of control

CC(C)(C)OOC(=O)c1ccc2ccccc2c1
inactive: [2] 109 % of control | [3] 97 % of control | [4] 93 % of control

NCC1CCC(C(=O)O)CC1 (stereo not drawn)
inactive: [6] 94 % of control | dose: 100.0 mg/kg/injection, schedule: Q01DX005 (ip), vehicle: saline with Tween-80 92 % of control | [7] 99 % of control | dose: 200.0 mg/kg/injection, schedule: Q01DX005 (ip), vehicle: saline with Tween-80 100 % of control | [8] 101 % of control | dose: 400.0 mg/kg/injection, schedule: Q01DX005 (ip), vehicle: saline with Tween-80 103 % of control | [9] 100 % of control | dose: 800.0 mg/kg/injection, schedule: Q01DX005 (ip), vehicle: saline with Tween-80 89 % of control

COc1ccc(CC2=NCCc3cc(OC)c(OC)cc32)cc1OC
inactive: dose: 22.0 mg/kg/injection, schedule: Q01DX009 (ip), vehicle: saline 104 % of control | dose: 33.0 mg/kg/injection, schedule: Q01DX009 (ip), vehicle: saline 103 % of control | [5] 103 % of control | dose: 75.0 mg/kg/injection, schedule: Q01DX009 (ip), vehicle: saline 102 % of control

CC1=CC(C)(C)N=C2SC(COc3ccccc3)=NN12
inactive: dose: 25.0 mg/kg/injection, schedule: Q01DX005 (ip), vehicle: Klucel (hydroxypropylcellulose) (HPC) 116 % of control | [10] 109 % of control | [11] 107 % of control | [12] 104 % of control

N#CC(c1ccc2c(c1)OCO2)N1CCCC1 (stereo not drawn)
inactive: dose: 12.5 mg/kg/injection, schedule: Q01DX001 (ip), vehicle: Klucel (hydroxypropylcellulose) (HPC) 108 % of control | dose: 25.0 mg/kg/injection, schedule: Q01DX001 (ip), vehicle: Klucel (hydroxypropylcellulose) (HPC) 108 % of control | dose: 100.0 mg/kg/injection, schedule: Q01DX001 (ip), vehicle: Klucel (hydroxypropylcellulose) (HPC) 100 % of control | dose: 400.0 mg/kg/injection, schedule: Q01DX001 (ip), vehicle: Klucel (hydroxypropylcellulose) (HPC) 99 % of control

COC(=O)c1c2ccccc2cn1C
inactive: dose: 100.0 mg/kg/injection, schedule: Q04DX002 (ip), vehicle: saline with Tween-80 100 % of control | dose: 200.0 mg/kg/injection, schedule: Q04DX002 (ip), vehicle: saline with Tween-80 102 % of control

O=Cc1cccc(S(=O)(=O)O)c1
inactive: dose: 60.0 mg/kg/injection, schedule: Q01DX005 (ip), vehicle: saline 100 % of control | dose: 120.0 mg/kg/injection, schedule: Q01DX005 (ip), vehicle: saline 94 % of control | dose: 240.0 mg/kg/injection, schedule: Q01DX005 (ip), vehicle: saline 102 % of control

O=[N+]([O-])c1ccc(-c2ncc(-c3ccc(Br)cc3)o2)cc1
inactive: [13] 108 % of control | [14] 107 % of control | dose: 240.0 mg/kg/injection, schedule: Q01DX005 (ip), vehicle: Klucel (hydroxypropylcellulose) (HPC) 110 % of control

COc1cc(C2N=C(N)N=C(N)N2c2ccc(S(N)(=O)=O)cc2)cc(OC)c1OC (stereo not drawn)
inactive: [13] 103 % of control | [14] 103 % of control

CCOc1cc2c(cc1C(CC)c1ccc(OC)cc1)OCO2 (stereo not drawn)
inactive: [10] 104 % of control | [11] 104 % of control | [12] 99 % of control

COc1cc(C(=O)OC(CN2CCOCC2)Cn2nnc3c(OC)c(OC)c(OC)cc3c2=O)cc(OC)c1OC (stereo not drawn)
inactive: dose: 50.0 mg/kg/injection, schedule: Q01DX009 (ip), vehicle: water 100 % of control | dose: 100.0 mg/kg/injection, schedule: Q01DX009 (ip), vehicle: water 100 % of control | dose: 200.0 mg/kg/injection, schedule: Q01DX009 (ip), vehicle: water 108 % of control
